Experiments:
[1] = tested on: genotype 1/2 chimeric cell culture derived HCV (HCVcc); assay: Genotype 1/2 chimeric HCVcc assay (nano-luciferase, HCV replication); format: cell-based; settings: Hepatitis C virus
Outline: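 EC50 (replication, nano-luciferase) and CC50 (viability, cellular ATP) were determined by non-linear regression 72 h after infection with a reporter HCVcc chimera carrying genotype 1a structural and 2a JFH-1 non-structural proteins. Compound was applied to Huh-7.5 cells 2 h before inoculation.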

[2] = tested on: HCV genotype 7a (QC69) chimeric HCVcc; assay: Pan-genotypic activity test using chimeric HCVcc, genotype 7a; format: cell-based; settings: Hepatitis C virus, read-out: EC50 gt7a
Experimental: (§1) Naïve Huh-7.5 target cells were plated at 2400 cells/well in 25 μL of culture media in 384-well plates (Greiner bio-one, μ clear black). After overnight incubation, compounds serially diluted in 10 μL of cell culture media were added. After 2 h compound treatment, cells were inoculated with 40 μL of genotype 1/2 chimeric cell culture derived HCV (HCVcc) which express structural proteins of an HCV genotype 1a isolate (TN accession number EF621489) and non-structural proteins of HCV genotype 2a (JFH-1) with nano-luciferase reporter. At 72 h post infection, nano-luciferase activity (Nano-Glo™, Promega) and cellular ATP (Cell titer-Glo™, Promega) were measured as a marker for HCV replication and cytotoxicity, respectively. EC50 and CC50 were calculated by non-linear regression analyzing using GraphPad Prism (GraphPad Software).
(§2) In order to evaluate cross-genotypic antiviral activity against various HCV genotypes, Formulas I and II were tested using chimeric HCVcc as described above. HCV chimeras expressing the structural proteins of HCV genotype 1b (J4), 2a (J6), 2b (J8), 3a (S52), 4a (ED43), 5a (SA13), 6a (HK6a) or 7a (QC69), followed by HCV genotype 2a (JFH-1) derived non-structural proteins responsible for viral RNA replication and Renilla luciferase reporter gene were used to monitor viral replication.

[3] = tested on: HCV genotype 2a (J6) chimeric HCVcc; assay: Pan-genotypic activity test using chimeric HCVcc, genotype 2a; format: cell-based; settings: Hepatitis C virus, read-out: EC50 gt2a
Experimental: as §1, §2

[4] = tested on: HCV genotype 2b (J8) chimeric HCVcc; assay: Pan-genotypic activity test using chimeric HCVcc, genotype 2b; format: cell-based; settings: Hepatitis C virus, read-out: EC50 gt2b
Experimental: as §1, §2

[5] = tested on: HCV genotype 4a (ED43) chimeric HCVcc; assay: Pan-genotypic activity test using chimeric HCVcc, genotype 4a; format: cell-based; settings: Hepatitis C virus, read-out: EC50 gt4a
Experimental: as §1, §2

[6] = tested on: HCV genotype 3a (S52) chimeric HCVcc; assay: Pan-genotypic activity test using chimeric HCVcc, genotype 3a; format: cell-based; settings: Hepatitis C virus, read-out: EC50 gt3a
Experimental: as §1, §2

[7] = tested on: HCV genotype 5a (SA13) chimeric HCVcc; assay: Pan-genotypic activity test using chimeric HCVcc, genotype 5a; format: cell-based; settings: Hepatitis C virus, read-out: EC50 gt5a
Experimental: as §1, §2

[8] = tested on: HCV genotype 6a (HK6a) chimeric HCVcc; assay: Pan-genotypic activity test using chimeric HCVcc, genotype 6a; format: cell-based; settings: Hepatitis C virus, read-out: EC50 gt6a
Experimental: as §1, §2

[9] = tested on: HCV genotype 1a chimeric HCVcc; assay: Pan-genotypic activity test using chimeric HCVcc, genotype 1a; format: cell-based; settings: Hepatitis C virus, read-out: EC50 gt1a
[10] = tested on: HCV genotype 1b (J4) chimeric HCVcc; assay: Pan-genotypic activity test using chimeric HCVcc, genotype 1b; format: cell-based; settings: Hepatitis C virus, read-out: EC50 gt1b
Experimental: as §1, §2

SMILES | EC50 ([1]; Huh7.5, 72 h) | melting point | EC50 [1] | EC50 [2] | EC50 [3] | EC50 [4] | EC50 [5] | EC50 [6] | EC50 [7] | EC50 [8] | EC50 [9] | EC50 [10]
CCN1CCc2c(sc(-n3cccc3)c2CNC(=O)Nc2sccc2C(=O)OC)C1 [Compound 11] | 1000 to 10000 nM | 201.8 °C | – | – | – | – | – | – | – | – | – | –
CCOC(=O)c1c(NC(=O)NCc2c(-n3cccc3)sc3c2CCN(CC)C3)sc(C)c1C [Compound 12] | 100 to 1000 nM | 196.9 °C | – | – | – | – | – | – | – | – | – | –
O=C(NCCCN1CCC(N2CCCCC2)CC1)c1ccc(-c2ccccc2OC(F)(F)F)cc1 [Compound 1149] | – | – | 100 to 1000 nM | – | – | – | – | – | – | – | – | –
N#Cc1cccc(-c2ccc(C(=O)NCCCN3CCC(N4CCCCC4)CC3)cc2)c1 [Compound 1150] | – | – | 100 to 1000 nM | – | – | – | – | – | – | – | – | –
CN1CCN(C(=O)c2ccc(-c3ccc(C(=O)NCCCN4CCC(N5CCCCC5)CC4)cc3)cc2)CC1 [Compound 1151] | – | – | > 10000 nM | – | – | – | – | – | – | – | – | –
Cc1cc(NC(=O)CCCN2CCC(N3CCCCC3)CC2)ccc1-c1ccc(C(F)(F)F)cc1 [Compound 1152] | – | – | < 100 nM | – | – | – | – | – | – | – | – | –
O=C(NCCCN1CCC(N2CCCCC2)CC1)c1ccc(-c2ccc(C(F)(F)F)cc2)cc1F [Compound 1153] | – | – | 100 to 1000 nM | – | – | – | – | – | – | – | – | –
CN(C)c1ccc(-c2ccc(C(=O)NCCCN3CCC(N4CCCCC4)CC3)c(Cl)c2)cc1 [Compound 1154] | – | – | 100 to 1000 nM | – | – | – | – | – | – | – | – | –
COc1cc(-c2ccc(C(F)(F)F)cc2)ccc1C(=O)NCCCN1CCC(N2CCCCC2)CC1 [Compound 1155] | – | – | 100 to 1000 nM | – | – | – | – | – | – | – | – | –
Cc1cc(-c2ccc(C(F)(F)F)cc2)ccc1C(=O)NCCCN1CCC(N2CCCCC2)CC1 [Compound 1156] | – | – | 100 to 1000 nM | – | – | – | – | – | – | – | – | –
COc1cc(NC(=O)CCCN2CCC(N3CCCCC3)CC2)ccc1-c1ccc(C(F)(F)F)cc1 [Compound 1157] | – | – | 100 to 1000 nM | – | – | – | – | – | – | – | – | –
O=C(CCCN1CCC(N2CCCCC2)CC1)Nc1ccc(-c2ccc(C(F)(F)F)cc2)c(C(F)(F)F)c1 [Compound 1158] | – | – | 100 to 1000 nM | – | – | – | – | – | – | – | – | –
N#Cc1cc(NC(=O)CCCN2CCC(N3CCCCC3)CC2)ccc1-c1ccc(C(F)(F)F)cc1 [Compound 1159] | – | – | 100 to 1000 nM | – | – | – | – | – | – | – | – | –
CCN1CCc2c(sc(-n3cccc3)c2CNC(=O)Nc2sc3c(c2C(=O)OC(C)(C)C)CCCC3)C1 [No. 14] | – | – | – | < 100 nM | 100 to 1000 nM | < 100 nM | 100 to 1000 nM | 100 to 1000 nM | 1000 to 10000 nM | > 10000 nM | 100 to 1000 nM | 100 to 1000 nM
CCOC(=O)c1c(NC(=O)NCc2c(-n3cccc3)sc3c2CCNC3)sc2c1CCCC2 [No. 19] | – | – | – | 100 to 1000 nM | 100 to 1000 nM | 100 to 1000 nM | 100 to 1000 nM | 100 to 1000 nM | 1000 to 10000 nM | > 10000 nM | 100 to 1000 nM | 100 to 1000 nM
CCOC(=O)c1c(NC(=O)NCc2c(-n3cccc3)sc3c2CCN(S(C)(=O)=O)C3)sc2c1CCCC2 [No. 21] | – | – | – | < 100 nM | < 100 nM | – | < 100 nM | < 100 nM | 1000 to 10000 nM | > 10000 nM | < 100 nM | < 100 nM
CCOC(=O)c1c(NC(=O)NCc2c(-n3cccc3)sc3c2CCN(CC(C)C)C3)sc2c1CCCC2 [No. 27] | – | – | – | 100 to 1000 nM | 100 to 1000 nM | 100 to 1000 nM | 100 to 1000 nM | 100 to 1000 nM | 1000 to 10000 nM | > 10000 nM | 100 to 1000 nM | 100 to 1000 nM
CC(C)(C)OC(=O)c1c(NC(=O)NCc2c(C(F)(F)F)sc3c2CCNC3)sc2c1CCCC2 [No. 121] | – | – | – | < 100 nM | < 100 nM | < 100 nM | < 100 nM | < 100 nM | 1000 to 10000 nM | > 10000 nM | < 100 nM | < 100 nM
CC(C)OC(=O)c1c(NC(=O)NCc2c(C(F)(F)F)sc3c2CCNC3)sc2c1CCCC2 [No. 167] | – | – | – | < 100 nM | < 100 nM | < 100 nM | < 100 nM | < 100 nM | 1000 to 10000 nM | > 10000 nM | < 100 nM | < 100 nM
CCOC(=O)c1c(NC(=O)NCc2c(C(F)(F)F)sc3c2CCN(CCN(C)C)C3)sc2c1CCCC2 [No. 316] | – | – | – | < 100 nM | < 100 nM | < 100 nM | < 100 nM | < 100 nM | 1000 to 10000 nM | > 10000 nM | < 100 nM | < 100 nM
O=C(NCCCN1CCC(N2CCCCC2)CC1)c1ccc(Oc2ccccc2)cc1 [No. 1013] | – | – | – | > 10000 nM | 1000 to 10000 nM | 100 to 1000 nM | > 10000 nM | > 10000 nM | > 10000 nM | > 10000 nM | > 10000 nM | > 10000 nM
O=C(NCCCN1CCC(N2CCCCC2)CC1)c1ccc(-c2ccc(C(F)(F)F)cc2)cc1 [No. 1019] | – | – | – | > 10000 nM | 1000 to 10000 nM | 1000 to 10000 nM | > 10000 nM | > 10000 nM | > 10000 nM | > 10000 nM | > 10000 nM | > 10000 nM
